Data published in patent US20060124903A1, “Aerosol preparation comprising sealed container and enclosed therein aerosol composition containing marcolide compound” (Astellas Pharma Inc., priority 2003, published 2006).

How the values were obtained:
[1] = Content of tacrolimus solvable in liquefied hydrofluoroalkane; format: physicochemical; conditions: liquefied hydrofluoroalkane (HFA-134a, HFA-227)
[2] = Adsorptivity of tacrolimus to resinous material constituting valve part (FIG. 3); format: physicochemical
Excerpt: FIG. 3 illustrates the adsorptivity of the active ingredient contained in the aerosol composition to each sample resinous material soaked in the aerosol composition.
The axis of ordinates designates the ratio of (remaining) active ingredient in the aerosol composition to the initial active ingredient therein when the percentage of the initial active ingredient contained in the aerosol composition is 100%.
The aerosol composition used in the test of FIG. 3 contains a 0.025 wt % macrolide compound. To be concrete, the aerosol composition is a solution that contains 2.5 mg tacrolimus serving as the active ingredient, 10 ml liquefied hydrofluoroalkane (HFA-134a) serving as the propellant, and a little amount of lubricant normally used for metered dose inhalation.
In the test of FIG. 3, each of the sample resinous materials is formed into a circular shape having a 5 mm diameter (a 39 mm^2 surface area), similar to the form of first gasket 11. Each of the sample resinous materials is soaked in the aerosol composition solution under the condition of 75% relative humidity and 50° C. for a month. […]

Compound	content of the tacrolimus solvable in the liquefied hydrofluoroalkane [1]	ratio of (remaining) active ingredient in the aerosol composition to the initial active ingredient [2]
C=CC[C@@H]1/C=C(\C)C[C@H](C)C[C@H](OC)[C@H]2O[C@@](O)(C(=O)C(=O)N3CCCC[C@H]3C(=O)O[C@H](/C(C)=C/[C@@H]3CC[C@@H](O)[C@H](OC)C3)[C@H](C)[C@@H](O)CC1=O)[C@H](C)C[C@@H]2OC [tacrolimus]	not more than 0.15 wt %	
polyethylene		scarcely reduced
polypropylene		scarcely reduced
